Source: patent US10323060B2, “Benzoic acid derivatives of bile acid as FXR/TGR5 agonists and methods of use thereof” (ENANTA PHARMACEUTICALS, INC., priority 2016, dated 2019)

Molecular target: human FXR (NR1H4) (Homo sapiens (Human), UniProt Q96RI1)
Experiment: Human FXR (NR1H4) Assay (luciferase reporter, Indigo Bioscience kit); on Efficacy (%): efficacy normalized to CDCA set as 100%
Assay type: cell-based
Settings: for EC50: FXR agonistic potency range, CHO reporter cells expressing human NR1H4, 22 hours incubation; for Emax: read-out: Efficacy (%)
Source text: Assays Human FXR (NR1H4) Assay
Determination of a ligand mediated Gal4 promoter driven transactivation to quantify ligand binding mediated activation of FXR. FXR Reporter Assay kit purchased from Indigo Bioscience (Catalogue number: IB00601) to determine the potency and efficacy of compound developed by Enanta that can induce FXR activation. The principle application of this reporter assay system is to quantify functional activity of human FXR. The assay utilizes non-human mammalian cells, CHO (Chinese hamster ovary) cells engineered to express human NR1H4 protein (referred to as FXR). Reporter cells also incorporate the cDNA encoding beetle luciferase which catalyzes the substrates and yields photon emission. Luminescence intensity of the reaction is quantified using a plate-reading luminometer, Envision. Reporter Cells include the luciferase reporter gene functionally linked to an FXR responsive promoter. Thus, quantifying changes in luciferase expression in the treated reporter cells provides a sensitive surrogate measure of the changes in FXR activity. […] The assay is according to the manufacturer's instructions. In brief, the assay was performed in white, 96 well plates using final volume of 100 ul containing cells with different doses of compounds. Retrieve Reporter Cells from −80° C. storage. Perform a rapid thaw of the frozen cells by transferring a 10 ml volume of 37° C. cell recovery medium into the tube of frozen cells. Recap the tube of Reporter Cells and immediately place it in a 37° C. water bath for 5-10 minutes. Retrieve the tube of Reporter Cell Suspension from the water bath. Sanitize the outside surface of the tube with a 70% alcohol swab, and then transfer it into the cell culture hood. Dispense 90 μl of cell suspension into each well of the 96-well Assay Plate. Transfer the plate into 37° C. incubator, allowing the cells adherent to the bottom of the well. Dilute compounds in Dilution Plate (DP), and administrate to cells at Assay Plate (AP). DMSO content of the samples was kept at 0.2%. Cells were incubated for additional 22 hours before luciferase activities were measured. Thirty minutes before intending to quantify FXR activity, remove Detection Substrate and Detection Buffer from the refrigerator and place them in a low-light area so that they may equilibrate to room temperature. Remove the plate's lid and discard all media contents by ejecting it into an appropriate waste container. Gently tap the inverted plate onto a clean absorbent paper towel to remove residual droplets. Cells will remain tightly adhered to well bottoms. Add 100 μl of luciferase detection reagent to each well of the assay plate. Allow the assay plate to rest at room temperature for at least 5 minutes following the addition of LDR. Set the instrument (Envision) to perform a single 5 second “plate shake” prior to reading the first assay well. Read time may be 0.5 second (500 mSec) per well.

Chain of human FXR (NR1H4) (Q96RI1 whole entry): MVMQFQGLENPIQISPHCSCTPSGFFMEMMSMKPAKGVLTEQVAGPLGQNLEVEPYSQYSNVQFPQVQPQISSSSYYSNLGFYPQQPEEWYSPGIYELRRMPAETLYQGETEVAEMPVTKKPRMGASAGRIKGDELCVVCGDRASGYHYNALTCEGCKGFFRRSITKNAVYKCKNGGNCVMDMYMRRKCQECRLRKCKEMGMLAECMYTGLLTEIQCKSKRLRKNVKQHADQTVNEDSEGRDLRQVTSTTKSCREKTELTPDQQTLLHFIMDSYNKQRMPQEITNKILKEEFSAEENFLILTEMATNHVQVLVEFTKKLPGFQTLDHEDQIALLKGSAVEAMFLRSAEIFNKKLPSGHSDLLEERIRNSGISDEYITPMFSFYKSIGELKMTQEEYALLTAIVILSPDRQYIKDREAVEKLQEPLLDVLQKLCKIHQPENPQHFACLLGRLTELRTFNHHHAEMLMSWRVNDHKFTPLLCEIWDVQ

SMILES	EC50 [µM]	Emax [%]
CC[C@H]1[C@@H](O)[C@@H]2[C@H](CC[C@]3(C)[C@@H]([C@H](C)Cc4nc5cccc(C(=O)O)c5[nH]4)CC[C@@H]23)[C@@]2(C)CC[C@@H](O)C[C@@H]12 [Example 32]	1 to 10	24
CC[C@H]1[C@@H](O)[C@@H]2[C@H](CC[C@]3(C)[C@@H]([C@H](C)CCCc4ccc(C(=O)O)c(O)c4)CC[C@@H]23)[C@@]2(C)CC[C@@H](O)C[C@@H]12 [Example 14]	1 to 10	232
CC[C@H]1[C@@H](O)[C@@H]2[C@H](CC[C@]3(C)[C@@H]([C@H](C)CC=Cc4cc(F)c(O)c(F)c4)CC[C@@H]23)[C@@]2(C)CC[C@@H](O)C[C@@H]12 [Example 4]	0.1 to 1	298
CC[C@H]1[C@@H](O)[C@@H]2[C@H](CC[C@]3(C)[C@@H]([C@H](C)C/C=C/c4ccccc4-c4nnn[nH]4)CC[C@@H]23)[C@@]2(C)CC[C@@H](O)C[C@@H]12 [Example 30]	0.1 to 1	332
CC[C@H]1[C@@H](O)[C@@H]2[C@H](CC[C@]3(C)[C@@H]([C@H](C)CC4CC4c4ccccc4C(=O)O)CC[C@@H]23)[C@@]2(C)CC[C@@H](O)C[C@@H]12 (stereo partly drawn) [Example 10]	0.1 to 1	252
CC[C@H]1[C@@H](O)[C@@H]2[C@H](CC[C@]3(C)[C@@H]([C@H](C)C/C=C/c4ccc(C(=O)O)cc4)CC[C@@H]23)[C@@]2(C)CC[C@@H](O)C[C@@H]12 [Example 19]	0.1 to 1	244
CC[C@H]1[C@@H](O)[C@@H]2[C@H](CC[C@]3(C)[C@@H]([C@H](C)CC4CC4c4cccc(C(=O)O)c4)CC[C@@H]23)[C@@]2(C)CC[C@@H](O)C[C@@H]12 (stereo partly drawn) [Example 33]	1 to 10	229
CC[C@H]1[C@@H](O)[C@@H]2[C@H](CC[C@]3(C)[C@@H]([C@H](C)C/C=C/c4ccc(C(=O)O)c(O)c4)CC[C@@H]23)[C@@]2(C)CC[C@@H](O)C[C@@H]12 [Example 13]	0.1 to 1	166
CC[C@H]1[C@@H](O)[C@@H]2[C@H](CC[C@]3(C)[C@@H]([C@H](C)CCOc4ccccc4C(=O)O)CC[C@@H]23)[C@@]2(C)CC[C@@H](O)C[C@@H]12 [Example 11]	–	388
CC[C@H]1[C@@H](O)[C@@H]2[C@H](CC[C@]3(C)[C@@H]([C@H](C)C/C=C/c4ccc(F)cc4C(=O)O)CC[C@@H]23)[C@@]2(C)CC[C@@H](O)C[C@@H]12 [Example 25]	–	376
CC[C@H]1[C@@H](O)[C@@H]2[C@H](CC[C@]3(C)[C@@H]([C@H](C)C/C=C/c4cnccc4C(=O)O)CC[C@@H]23)[C@@]2(C)CC[C@@H](O)C[C@@H]12 [Example 28]	0.1 to 1	300
CC[C@H]1[C@@H](O)[C@@H]2[C@H](CC[C@]3(C)[C@@H]([C@H](C)C/C=C/c4ccc(-c5nnn[nH]5)cc4)CC[C@@H]23)[C@@]2(C)CC[C@@H](O)C[C@@H]12 [Example 24]	1 to 10	234
CC[C@H]1[C@@H](O)[C@@H]2[C@H](CC[C@]3(C)[C@@H]([C@H](C)C/C=C/c4ccc(C(C)C(=O)OC)cc4)CC[C@@H]23)[C@@]2(C)CC[C@@H](O)C[C@@H]12 (stereo partly drawn) [Example 15]	1 to 10	40
CC[C@H]1[C@@H](O)[C@@H]2[C@H](CC[C@]3(C)[C@@H]([C@H](C)Cc4nc5c(C(=O)O)cccc5o4)CC[C@@H]23)[C@@]2(C)CC[C@@H](O)C[C@@H]12 [Example 7]	0.1 to 1	195
CC[C@H]1[C@@H](O)[C@@H]2[C@H](CC[C@]3(C)[C@@H]([C@H](C)C/C=C/c4ccc(C(=O)OC)c(O)c4)CC[C@@H]23)[C@@]2(C)CC[C@@H](O)C[C@@H]12 [Example 12]	1 to 10	134
CC[C@H]1[C@@H](O)[C@@H]2[C@H](CC[C@]3(C)[C@@H]([C@H](C)Cc4nc5cccc(C(=O)OC)c5[nH]4)CC[C@@H]23)[C@@]2(C)CC[C@@H](O)C[C@@H]12 [Example 31]	1 to 10	34
